According to patent publication US12257290B2, “PIC1 inhibition of myeloperoxidase oxidative activity in an animal model” (priority 2018, dated 2025):
Ends that are not written are not given here.

Experiments:
Human neutrophil MPO = experiment: Purified MPO inflammatory peritonitis model (peritoneal wash TMB peroxidase activity, PicoGreen free DNA); assay type: in vivo, Wistar rats; conditions: for MPO activity in peritoneal wash: P<0.019
Experimental: Human neutrophil MPO (Lee Biosolutions) was diluted in sterile saline to the respective doses necessary for each experiment. PIC1 in the form of PA-dPEG24 (PolyPeptide Group) was solubilized and diluted in 0.5 M Histidine buffer, adjusted to pH 6.5, and then diluted to each of the respective doses used for each experiment.
Wistar rats were sedated and injected IP with purified MPO in experiments that were conducted under an Eastern Virginia Medical School IRB approved protocol (#17-008). 16-week-old male Wistar rats were used in these experiments weighing approximately 200 g. The rats received sedation with ketamine and acepromazine prior to all procedures. They then received a 1 ml IP injection with MPO in saline. After the time interval indicated, a tail vein phlebotomy was performed to obtain 250 mcl of blood in a K2EDTA Microtainer (BD). The animals were then euthanized with FatalPlus IV. A peritoneal wash with 20 ml of ice cold PBS was then performed by […] followed by massage and extraction from a small hole in the peritoneum with a blunt needle and syringe.
Cells were sedimented and supernatants were tested for MPO peroxidation of TMB, with sample processing performed as follows. Peritoneal wash fluid was centrifuged at 1500×g for 5 minutes to sediment cells and other debris. The resulting peritoneal wash fluid supernatant was aliquoted and frozen for further analysis. The cell pellet was resuspended to the original volume with saline and cells were counted on a hemocytometer. Plasma was collected after centrifugation of the lavender top blood collection tubes.
The MPO activity assay was performed as follows. Peritoneal fluid, along with pure MPO for a standard curve, was serially titrated in 0.1 ml in a 96 well plate followed by the addition of 0.1 ml of 3,3′,5,5′-tetramethylbenzidine (TMB) (Fisher). After one minute, 0.1 ml of 2.5 M H2SO4 was added to stop the reaction and the plate was read at 450 nm. Using linear regression from the standard curve, the MPO activity was calculated for each sample.
In the peritoneal wash fluid supernatants, free DNA was measured as a marker of NETosis via the PicoGreen assay. Peritoneal fluid or plasma, along with DNA (Invitrogen) for a standard curve, was serially titrated in 0.1 ml in a 96 well plate and used in the Quant-iT PicoGreen (Fisher) assay. The PicoGreen solution was diluted as directed by the kit instructions and added to samples, which were incubated in the dark for 10 minutes and then read on a fluorescent microplate reader at excitation 480 nm/emission 520 nm). Using linear regression from the standard curve, the DNA concentration was quantitated for each sample.
The effect of PIC1, in particular PA-dPEG24, on the inhibition of MPO and NETosis in MPO-mediated peritonitis was then assayed. A series of increasing doses of PA-dPEG24 (1 mg, 5 mg, and 20 mg) were injected IP immediately, i.e., one minute after purified MPO was inoculated, into the peritoneum followed 2 hours later by phlebotomy, euthanasia and peritoneal wash. A control was used where no PA-dPEG24 was administered. An MPO activity assay and a free DNA assay according to the methods discussed above were conducted for each of 0 mg, 1 mg, 5 mg, and 20 mg PA-dPEG24 doses.

human neutrophils = experiment: Immune complex-activated serum-initiated NET formation by human neutrophils (fluorescence microscopy, PicoGreen free DNA); assay type: cell-based; conditions: for decrease of free DNA (PicoGreen): immune complex-activated sera + hydrogen peroxide
Experimental: Neutrophils from the blood of healthy volunteers were purified from heparinized blood by Hypaque-Ficoll step gradient centrifugation, dextran sedimentation, and hypotonic lysis, as previously described.
A Neutrophil Extracellular Trap assay was performed in a microtiter plate as follows. The formation of NETs was induced by incubating 2.0×10^5 neutrophils in a 96 well tissue culture plates with RPMI media alone, or adding 0.05% of H2O2, or 12 nM PMA, or 8 μg/ml MPO, or PA-dPEG24 at various concentrations. For immune complex sera induced NET formation, activated sera was made by adding 5 μl of ovalbumin-anti-ovalbumin immune complex to 5% NHS in 0.3 ml of GVBS^++. This combination was allowed to incubate for 30 minutes at 37° C., and then 0.05 ml was added to the neutrophils in RPMI. Cells were then incubated for 1.5 hours at 37° C. in 5% CO2 incubator.
NET formation was quantitatively assayed as follows. Free DNA was measured by PicoGreen in the supernatant recovered from the NET microtiter plate well assay. Five hundred units of […] (Fisher) were added to each well to allow for digestion of released extracellular DNA for 10 minutes in 37° C. incubator. The preparation was then aliquoted into an adjacent well and mixed 1:1 with prepared PICO green reagent (Fisher). The fluorescence was then quantified on a BioTek microplate reader at Excitation 485 nm/Emission 528 nm.
NET formation was assayed by fluorescence microscopy. […]
PA-dPEG24 inhibits immune complex-initiated NET formation by human neutrophils. A potential relationship between immune complex-initiated complement-activated human sera and NET formation by human neutrophils was evaluated. […] The immune complex-initiated complement-activated human sera was then incubated with purified human neutrophils resulting in NET formation quantified by free DNA measurement with PicoGreen. The relative contribution of immune complexes was initially evaluated by themselves compared with immune complex-initiated complement-activated human sera for generation of NETs. […]

## IALILEPICCQERAA-dPEG24 (cysteine pairing not given here) [PA-dPEG24, 15-amino acid PEGylated peptide, 24 PEG moieties at the C-terminus]
Human neutrophil MPO; 1 mg (5 mg/kg) IP, 2 h
  MPO activity in peritoneal wash: Statistically significant decreases
Human neutrophil MPO; 5 mg (25 mg/kg) IP, 2 h
  MPO activity in peritoneal wash: Statistically significant decreases
Human neutrophil MPO; 20 mg (100 mg/kg) IP, 2 h, P=0.11
  free DNA in the peritoneal fluid (PicoGreen): trend towards decreased free DNA
Human neutrophil MPO; 20 mg (100 mg/kg) IP, 2 h, vs no PA-dPEG24, P=0.015
  decrease in peroxidase activity by TMB in peritoneal wash: 5 fold
Human neutrophil MPO; highest dose, P=0.22 vs no PIC1
  free DNA in blood plasma (PicoGreen): lowest with the highest dose
Human neutrophils; 2.2 mM PA-dPEG24, P=0.037
  decrease of free DNA (PicoGreen): 23%
Human neutrophils; 4.5 mM PA-dPEG24, P<0.001
  decrease of free DNA (PicoGreen): 3 fold
Human neutrophils; 5 mM PA-dPEG24, immune complex-initiated complement-activated sera
  NETs identified by fluorescence microscopy: no NETs were identified
